Test results taken from article PMC3384000, “TCN 201 selectively blocks GluN2A-containing NMDARs in a GluN1 co-agonist dependent but non-competitive manner” (Neuropharmacology, 2012).
Read-outs that look alike come from different tables or passages of the source. Blank lines part the entries; values can stand above or below the compound they belong to.

Legend:
GluN1/GluN2B NMDARs = target: T1, GluN1/GluN2B NMDARs (Rattus norvegicus, UniProt P35439+Q00960); test: TEVC recordings of NMDAR currents from Xenopus laevis oocytes expressing GluN1/GluN2B; type: cell-based; settings: TCN 201 10 μM, read-out: percentage inhibition of GluN1/GluN2B NMDAR-mediated currents
T1 construct: expressed in transfected cells; host or cells: Xenopus laevis oocytes injected with cRNA (GluN1:GluN2 1:1)
Method: (§1) Nomenclature of NMDA receptor subunits follows [Collingridge et al. (2009)] and [Alexander et al. (2011)]. pSP64T-based plasmid constructs containing cDNA coding for rat GluN1-1a (i.e. the splice variant that lacks exon 5, but contains exons 21 and 22), hereafter termed GluN1 and wild-type rat GluN2A receptor subunits were prepared as described by ([Chen et al., 2005]). The rat GluN2B-containing cDNA expression vector was a gift by Stephen Traynelis (Emory University, Atlanta, GA). cRNA was synthesized as runoff transcripts as previously detailed ([Chen et al., 2005], [2008]; [Erreger et al., 2007]). Fluorescence intensity in ethidium bromide-stained agarose gels was employed to confirm the fidelity and yield of synthesized cRNAs. For recombinant receptor expression, GluN1 and GluN2 cRNAs were mixed at a nominal ratio of 1:1 and diluted with nuclease-free water to 5 ng μl^−1.
(§2) Oocytes (Stage V–VI) were removed from Xenopus laevis that had been killed in accordance with current UK Home Office protocols and defolliculated by initial collagenase treatment, then manually using forceps. 23–37 nl of cRNA mix was injected into oocytes which were subsequently maintained in Barth's solution (composition in mM: NaCl 88, KCl 1, NaHCO3 2.4, MgCl2 0.82, CaCl2 0.77, Tris-Cl 15, adjusted to pH 7.35 with NaOH and supplemented with 50 IU ml^−1 penicillin, 50 μg ml^−1 streptomycin, 50 μg ml^−1 tetracycline) for 24–48 h at 19 °C to allow for receptor expression and then stored at 4 °C until required for electrophysiological measurements.
Two-electrode voltage-clamp (TEVC) recordings were made using a GeneClamp 500 amplifier (Molecular Devices, Sunnyvale, CA) at room temperature (18–21 °C) from oocytes placed in a bath that was perfused with a solution comprising (in mM): NaCl 115, KCl 2.5, HEPES 10, BaCl2 1.8, EDTA 0.01; pH 7.4 with NaOH. Note EDTA was included to chelate contaminating low nanomolar levels of Zn^2+ that potently block of GluN2A-containing NMDARs in a voltage-independent manner. […] TEVC recordings were performed at −30 or −40 mV. […]

GluN1/GluN2A NMDARs [1] = target: T2, GluN1/GluN2A NMDARs (Rattus norvegicus, UniProt P35439+Q00959); test: TEVC recordings of NMDAR currents from Xenopus laevis oocytes expressing GluN1/GluN2A; type: cell-based; settings: for inhibition at 10 µM: TCN 201 10 μM; for inhibition of GluN1/GluN2A NMDAR-mediated currents: antagonist 10 μM; for IC50: minimum unconstrained, read-out: IC50 (concentration giving 50% of the maximal achievable inhibition)
T2 construct: expressed in transfected cells; host or cells: Xenopus laevis oocytes injected with cRNA (GluN1:GluN2 1:1)
Method: as §1, §2
(§3) Two-electrode voltage-clamp (TEVC) recordings were made using a GeneClamp 500 amplifier (Molecular Devices, Sunnyvale, CA) at room temperature (18–21 °C) from oocytes placed in a bath that was perfused with a solution comprising (in mM): NaCl 115, KCl 2.5, HEPES 10, BaCl2 1.8, EDTA 0.01; pH 7.4 with NaOH. Note EDTA was included to chelate contaminating low nanomolar levels of Zn^2+ that potently block of GluN2A-containing NMDARs in a voltage-independent manner. […] TEVC recordings were performed at −30 or −40 mV. Currents were filtered at 10 Hz and digitized online at 100 Hz, via a Digidata 1200 A/D interface (Molecular Devices, Union City, CA, USA), using WinEDR 3.1.9 software (Strathclyde Electrophysiology Software, Strathclyde University, UK).
The concentration of TCN 201 required to inhibit 50% (IC50) of agonist-evoked responses were determined by fitting data to the equation: I=I[B]∞+((I[B]0−I[B]∞)/(1+([B]/IC50)^nH)), where I is current response, I[B]0 is predicted maximum current in the absence of antagonist, I[B]∞ is the predicted minimum current in the presence of an infinite concentration of antagonist,[B] is the concentration of the antagonist and nH represents the Hill coefficient. To obtain an overall mean IC50 value, data points were normalised to the predicted maximum, pooled and refitted with the equation, with the maximum of each curve being constrained to asymptote to 1 but with the minimum fitted as a free parameter ([Otton et al., 2011]; [Wrighton et al., 2008]). In addition we fitted data points where both the maximum and minimum were constrained (to 1 and 0, respectively). The F ratio was calculated from the following equation: F=(SSR1−SSR2)/(DF1−DF2)/SSR2/DF2, where SSR1 and SSR2 are the sum of squared residuals of the constrained and unconstrained fits respectively and DF1 and DF2 are the degrees of freedom associated with each of the two fits.

GluN1/GluN2A NMDARs [2] = target: T2, GluN1/GluN2A NMDARs; test: Schild analysis of antagonism at GluN1/GluN2A NMDARs (TEVC, oocytes); type: cell-based; settings: for dose ratio (r) for shift in glycine potency: glutamate 30 μM; for Schild plot slope (free linear regression fit): 0.3, 1 and 3 μM TCN 201 data points
Method: as §1, §2, §3
TCN 201 antagonism at the GluN1/GluN2A NMDAR was examined by the Schild method ([Arunlakshana and Schild, 1959]; [Wyllie and Chen, 2007]). Dose-ratios (r) were defined as the ratio of the concentration of agonist, in the presence of a fixed concentration of antagonist, required to evoke the same response that was obtained in the absence of the antagonist. Dose-ratios from individual oocytes were determined at low agonist concentrations by constructing a partial concentration-response curve generated in the absence of antagonist and in the presence of a series of increasing antagonist concentrations. Due to the lack of sufficient perfusion lines, the dose-ratio estimate for the higher concentrations of TCN 201 (3 and 10 μM) was determined in a separate series of experiments from those carried out for the lower two concentrations (0.3 and 1 μM). Each series of two-point concentration-response curves were plotted on a log–log scale and the slope of the line used to fit the initial (antagonist-free) two-point concentration-response curve was used to fit the remaining curves. These parallel fits were used to calculate an overall mean r value for each antagonist concentration [B], which were then used to construct a Schild plot. On a log–log scale the gradient of the line used to fit such data is predicted by the Schild equation to be unity for a competitive antagonist. […] For ‘allosteric’ antagonism at equilibrium, the Schild plot deviates from unity at higher concentrations of antagonist ([Christopoulos and Kenakin, 2002]). […]

[3] = system: NMDAR-mediated currents in rat cortical neurones; test: Whole-cell NMDA-evoked currents in cultured cortical neurones; type: cell-based; settings: TCN 201 10 μM after ifenprodil, NMDA 50 μM, glycine 3 μM
[4] = Solubility in external recording solutions; type: physicochemical; settings: external recording solutions for TEVC or whole-cell patch-clamp; from 3 mM DMSO stock
Method: Glutamate, glycine and D-serine were purchased from Sigma–Aldrich (Poole, UK). TCN 201, TCN 213, NMDA, ifenprodil, picrotoxin and tetrodotoxin were purchased from Tocris Bioscience (Bristol, UK). Stock solutions (3 mM) of TCN 201 were made by dissolving the antagonist in DMSO.

GluN1/GluN2A NMDARs [5] = target: T2, GluN1/GluN2A NMDARs; design: method as in McKay et al., 2012; settings: ref McKay et al., 2012, cited from earlier work
[6] = glutamate 30 μM, D-serine 10 μM
[7] = glutamate 30 μM, D-serine 30 μM

T1 sequence (Q00960 27-1482, other chains not shown): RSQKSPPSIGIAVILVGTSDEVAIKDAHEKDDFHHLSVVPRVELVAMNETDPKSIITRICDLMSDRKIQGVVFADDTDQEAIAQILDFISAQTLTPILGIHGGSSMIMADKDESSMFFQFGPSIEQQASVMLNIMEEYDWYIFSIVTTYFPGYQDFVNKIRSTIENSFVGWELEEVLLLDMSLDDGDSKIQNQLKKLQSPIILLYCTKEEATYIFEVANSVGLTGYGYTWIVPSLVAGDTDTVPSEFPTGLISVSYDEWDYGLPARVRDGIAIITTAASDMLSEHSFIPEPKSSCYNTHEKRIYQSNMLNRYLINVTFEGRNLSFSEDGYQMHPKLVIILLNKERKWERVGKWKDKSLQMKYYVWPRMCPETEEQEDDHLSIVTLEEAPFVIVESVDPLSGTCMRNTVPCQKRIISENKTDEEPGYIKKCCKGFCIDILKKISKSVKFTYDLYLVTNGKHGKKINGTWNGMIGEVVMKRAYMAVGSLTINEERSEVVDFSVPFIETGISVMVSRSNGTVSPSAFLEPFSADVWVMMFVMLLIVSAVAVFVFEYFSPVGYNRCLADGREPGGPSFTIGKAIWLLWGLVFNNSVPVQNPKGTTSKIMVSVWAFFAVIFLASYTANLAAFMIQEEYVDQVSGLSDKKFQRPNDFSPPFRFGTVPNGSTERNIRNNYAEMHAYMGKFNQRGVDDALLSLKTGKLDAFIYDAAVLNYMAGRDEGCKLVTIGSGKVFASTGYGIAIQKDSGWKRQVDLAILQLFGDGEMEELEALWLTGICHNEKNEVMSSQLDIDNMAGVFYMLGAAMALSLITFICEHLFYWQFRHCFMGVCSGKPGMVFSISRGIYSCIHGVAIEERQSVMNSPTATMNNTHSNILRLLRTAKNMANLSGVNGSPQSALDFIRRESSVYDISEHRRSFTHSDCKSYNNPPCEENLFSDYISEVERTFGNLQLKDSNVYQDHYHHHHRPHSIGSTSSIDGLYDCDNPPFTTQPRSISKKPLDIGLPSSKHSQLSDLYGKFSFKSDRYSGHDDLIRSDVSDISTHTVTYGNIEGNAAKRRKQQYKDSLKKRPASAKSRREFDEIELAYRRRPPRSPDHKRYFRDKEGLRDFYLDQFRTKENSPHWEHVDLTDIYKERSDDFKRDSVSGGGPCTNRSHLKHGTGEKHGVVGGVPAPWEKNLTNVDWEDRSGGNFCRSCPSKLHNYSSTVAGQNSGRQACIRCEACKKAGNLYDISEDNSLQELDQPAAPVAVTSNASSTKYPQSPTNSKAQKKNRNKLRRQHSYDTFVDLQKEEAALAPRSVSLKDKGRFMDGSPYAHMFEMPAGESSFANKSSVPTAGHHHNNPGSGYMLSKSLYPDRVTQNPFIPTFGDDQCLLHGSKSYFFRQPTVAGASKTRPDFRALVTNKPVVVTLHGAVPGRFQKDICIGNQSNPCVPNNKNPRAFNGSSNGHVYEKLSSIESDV
T2 sequence (Q00959 20-1464 limits assumed, other chains not shown): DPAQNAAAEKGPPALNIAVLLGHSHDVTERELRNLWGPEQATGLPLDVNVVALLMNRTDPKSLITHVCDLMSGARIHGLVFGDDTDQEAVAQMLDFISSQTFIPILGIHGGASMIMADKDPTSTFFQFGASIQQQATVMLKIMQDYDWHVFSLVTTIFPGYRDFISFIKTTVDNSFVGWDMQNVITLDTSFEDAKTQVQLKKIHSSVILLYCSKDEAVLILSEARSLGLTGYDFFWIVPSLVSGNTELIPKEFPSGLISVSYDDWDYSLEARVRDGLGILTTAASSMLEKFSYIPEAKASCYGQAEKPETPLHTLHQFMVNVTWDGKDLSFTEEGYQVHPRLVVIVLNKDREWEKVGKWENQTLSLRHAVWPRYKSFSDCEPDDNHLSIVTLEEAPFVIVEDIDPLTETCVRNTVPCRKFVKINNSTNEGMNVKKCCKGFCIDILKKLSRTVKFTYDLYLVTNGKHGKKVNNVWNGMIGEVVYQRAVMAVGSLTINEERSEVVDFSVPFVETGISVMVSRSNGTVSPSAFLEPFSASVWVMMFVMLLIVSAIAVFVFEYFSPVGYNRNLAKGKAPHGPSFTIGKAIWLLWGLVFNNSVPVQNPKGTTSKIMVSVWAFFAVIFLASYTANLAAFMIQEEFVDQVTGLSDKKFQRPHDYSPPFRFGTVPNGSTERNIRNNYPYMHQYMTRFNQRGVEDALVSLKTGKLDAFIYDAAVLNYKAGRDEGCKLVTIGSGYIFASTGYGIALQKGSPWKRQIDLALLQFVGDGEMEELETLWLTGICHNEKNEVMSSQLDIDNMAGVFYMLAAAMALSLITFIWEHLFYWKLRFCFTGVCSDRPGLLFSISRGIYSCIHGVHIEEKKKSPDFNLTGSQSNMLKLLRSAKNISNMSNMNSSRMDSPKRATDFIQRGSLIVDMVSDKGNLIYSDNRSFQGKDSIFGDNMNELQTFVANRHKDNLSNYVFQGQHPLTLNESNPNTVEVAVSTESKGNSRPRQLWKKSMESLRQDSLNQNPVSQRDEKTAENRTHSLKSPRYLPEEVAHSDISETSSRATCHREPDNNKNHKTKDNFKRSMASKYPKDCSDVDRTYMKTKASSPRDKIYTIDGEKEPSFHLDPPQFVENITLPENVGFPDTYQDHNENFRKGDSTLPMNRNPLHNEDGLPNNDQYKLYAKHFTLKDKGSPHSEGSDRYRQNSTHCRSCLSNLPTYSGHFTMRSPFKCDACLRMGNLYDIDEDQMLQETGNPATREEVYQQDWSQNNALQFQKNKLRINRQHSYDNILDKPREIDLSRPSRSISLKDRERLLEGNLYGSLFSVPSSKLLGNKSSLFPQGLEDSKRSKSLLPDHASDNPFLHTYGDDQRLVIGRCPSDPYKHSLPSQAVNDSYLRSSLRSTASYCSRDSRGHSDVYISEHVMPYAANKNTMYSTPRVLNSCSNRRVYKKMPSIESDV

- inhibition at 10 µM (GluN1/GluN2B NMDARs; glycine 3 μM): 1.8 ± 0.6%
- inhibition at 10 µM (GluN1/GluN2B NMDARs; glycine 10 μM): 3.1 ± 1%
- inhibition at 10 µM (GluN1/GluN2B NMDARs; glycine 30 μM): 3.1 ± 0.8%
- inhibition at 10 µM (GluN1/GluN2A NMDARs [1]; Fig. 2b, read-out: inhibition of glutamate/glycine-evoked GluN1/GluN2A NMDAR-mediated currents): 91.2 ± 1.1%
- inhibition at 10 µM (GluN1/GluN2A NMDARs [1]; data not shown, read-out: inhibition of NMDA/glycine-evoked GluN1/GluN2A NMDAR-mediated currents): 69.9 ± 4.1%
- inhibition at 10 µM (GluN1/GluN2A NMDARs [1]; glutamate 3 μM, glycine 30 μM, read-out: percentage inhibition of GluN1/GluN2A NMDAR-mediated currents): 54.5 ± 3.4%
- inhibition at 10 µM (GluN1/GluN2A NMDARs [1]; glutamate 10 μM, glycine 30 μM, read-out: percentage inhibition of GluN1/GluN2A NMDAR-mediated currents): 52.2 ± 3.7%
- inhibition at 10 µM (GluN1/GluN2A NMDARs [1]; glutamate 30 μM, glycine 30 μM (glutamate-dependency series), read-out: percentage inhibition of GluN1/GluN2A NMDAR-mediated currents): 45.8 ± 2.8%
- inhibition of GluN1/GluN2A NMDAR-mediated currents (GluN1/GluN2A NMDARs [1]; glutamate 30 μM, glycine 10 μM): 82.4 ± 1.1%
- inhibition of GluN1/GluN2A NMDAR-mediated currents (GluN1/GluN2A NMDARs [1]; glutamate 30 μM, glycine 30 μM): 50.7 ± 1.1%
- Hill slope (GluN1/GluN2A NMDARs [1]; glutamate 30 μM, D-serine 3 μM): 1.57 ± 0.078
- IC50 (GluN1/GluN2A NMDARs [1]; glutamate 30 μM, D-serine 3 μM): 326 ± 18 nM
- Hill slope (GluN1/GluN2A NMDARs [1]; [6]): 1.33 ± 0.21
- IC50 (GluN1/GluN2A NMDARs [1]; [6]): 816 ± 231 nM
- Hill slope (GluN1/GluN2A NMDARs [1]; [7]): 1.17 ± 0.07
- IC50 (GluN1/GluN2A NMDARs [1]; [7]): 1920 ± 250 nM
- Hill slope (GluN1/GluN2A NMDARs [1]; glutamate 30 μM, glycine 3 μM): 1.42 ± 0.061
- IC50 (GluN1/GluN2A NMDARs [1]; glutamate 30 μM, glycine 3 μM): 446 ± 26 nM
- Hill slope (GluN1/GluN2A NMDARs [1]; glutamate 30 μM, glycine 10 μM): 1.49 ± 0.21
- IC50 (GluN1/GluN2A NMDARs [1]; glutamate 30 μM, glycine 10 μM): 746 ± 133 nM
- Hill slope (GluN1/GluN2A NMDARs [1]; glutamate 30 μM, glycine 30 μM): 1.17 ± 0.11
- IC50 (GluN1/GluN2A NMDARs [1]; glutamate 30 μM, glycine 30 μM): 3890 ± 1060 nM
- predicted maximal inhibition (GluN1/GluN2A NMDARs [1]; saturating glycine (or D-serine), from fits with unconstrained minima): around 40%
- dose ratio (r) for shift in glycine potency (GluN1/GluN2A NMDARs [2]; 0.3 μM TCN 201): 5.19 ± 0.4
- dose ratio (r) for shift in glycine potency (GluN1/GluN2A NMDARs [2]; 1 μM TCN 201): 16.7 ± 2.1
- dose ratio (r) for shift in glycine potency (GluN1/GluN2A NMDARs [2]; 3 μM TCN 201): 41.1 ± 1.5
- dose ratio (r) for shift in glycine potency (GluN1/GluN2A NMDARs [2]; 10 μM TCN 201): 49.0 ± 2.0
- pA2 (GluN1/GluN2A NMDARs [2]; GluN1/GluN2A NMDARs, from Schild plot intercept): 7.15
- Schild plot slope (free linear regression fit) (GluN1/GluN2A NMDARs [2]; agonist D-serine): 0.87
- allosteric constant (α) (GluN1/GluN2A NMDARs [2]; agonist D-serine, modified equation): 0.0106
- Kb (GluN1/GluN2A NMDARs [2]; agonist D-serine, modified equation, all data points, read-out: allosteric KB^# (allosteric antagonist dissociation constant)): 66 nM
- Kb (GluN1/GluN2A NMDARs [2]; agonist D-serine, slope constrained to unity, first three data points, read-out: equilibrium constant (KB)): 81 nM
- maximum shift in the dose ratio (= 1/α) (GluN1/GluN2A NMDARs [2]; agonist glycine): around 80 fold
- Schild plot slope (free linear regression fit) (GluN1/GluN2A NMDARs [2]; agonist glycine): 0.98
- TCN 201 concentration needed to achieve the maximum dose-ratio shift (GluN1/GluN2A NMDARs [2]; agonist glycine, above limit of solubility): approximately 275 μM
- allosteric constant (α) (GluN1/GluN2A NMDARs [2]; agonist glycine, modified equation): 0.0123
- Kb (GluN1/GluN2A NMDARs [2]; agonist glycine, modified equation, all data points, read-out: allosteric KB^# (allosteric antagonist dissociation constant)): 56 nM
- Kb (GluN1/GluN2A NMDARs [2]; agonist glycine, slope constrained to unity, first three data points, read-out: equilibrium constant (KB)): 70 nM
- potency relative to TCN 213 at GluN1/GluN2A NMDARs (GluN1/GluN2A NMDARs [2]; comparison of pA2 / equilibrium constants): around 30 times
- maximum shift in the dose ratio (= 1/α) (GluN1/GluN2A NMDARs [2]; glycine or D-serine as GluN1-site agonist): 80–90 fold
- maximum usable concentration (noticeable precipitate at higher concentrations) [4]: 10 µM
SMILES: O=C(NNC(=O)c1ccc(CNS(=O)(=O)c2ccc(F)c(Cl)c2)cc1)c1ccccc1 [TCN 201, 3-chloro-4-fluoro-N-[4-[[2-(phenylcarbonyl)hydrazino]carbonyl]benzyl]benzenesulphonamide]
- block of NMDAR-mediated current (percentage of the original current magnitude) ([3]; DIV 9–10 neurones): 5 ± 2%
- block of NMDAR-mediated current (percentage of the original current magnitude) ([3]; DIV 15–18 neurones): 16 ± 3%
- block of NMDAR-mediated current (percentage of the original current magnitude) ([3]; GluN2A-transfected DIV 9–10 neurones): 47 ± 4%

- inhibition of GluN1/GluN2A NMDAR-mediated currents (GluN1/GluN2A NMDARs [1]; glutamate 30 μM, glycine 10 μM): 44.0 ± 2.2%
- inhibition of GluN1/GluN2A NMDAR-mediated currents (GluN1/GluN2A NMDARs [1]; glutamate 30 μM, glycine 30 μM): 17.3 ± 1.4%
SMILES: O=C(CSc1nnc(NCc2ccccc2)s1)NCC1CCCCC1 [TCN 213, N-(cyclohexylmethyl)-2-[{5-[(phenylmethyl)amino]-1,3,4-thiadiazol-2-yl}thio]acetamide]
- pA2 (GluN1/GluN2A NMDARs [5]; GluN1/GluN2A NMDARs): 5.69
- Kb (GluN1/GluN2A NMDARs [5]; Schild analysis, agonist glycine, read-out: equilibrium constant (KB)): 2000 nM
